Measured values from ChEMBL document CHEMBL1154993, “A cyclohexanonyl bromophenol from the red alga Symphyocladia latiuscula” (J Nat Prod, 2000).

Tested on: Radical scavenging activity
Assay: Antioxidant activity assessed as DPPH radical scavenging activity after 30 mins by spectrophotometer
Type: functional

| SMILES | IC50 [µM] |
| --- | --- |
| OCc1c(Br)c(O)c(O)c(Br)c1Br | 7.5 |
| O=C1O[C@H]([C@@H](O)CO)C(O)=C1O [ASCORBIC ACID] | 15.3 |
| O=C1CCCC[C@@H]1Cc1c(Br)c(O)c(O)c(Br)c1Br [SYMPHYOKETONE] | 8.5 |
